Measured values reported in patent US20250296971A1, “GASTRIC INHIBITORY PEPTIDE RECEPTOR LIGANDS” (priority 2021, published 2025).
*1 amine or outer side, *2 acyl side, *3 side chain or, on linkers, in order; H or OH if unused. Where a SMILES comes first, the peptide text is derived from it. Bridges are numbered along the chain shown (N, C = ends). [ ]: non-standard residue; d: D form. The star is where a group is joined. X5 = NC(=O)[C@H](CCCCNC(=O)CN1CCN(CC(=O)O)CCN(CC(=O)O)CCN(CC(=O)O)CC1)NC(=O)CCC(=O)NCCCOCCOCCOCCCN*; X25 = NC(=O)C(CCCCNC(=O)CN1CCN(CC(=O)O)CCN(CC(=O)O)CCN(CC(=O)O)CC1)NC(=O)CCC(=O)NCCCOCCOCCOCCCN*; Propanoyl(3-(1-naphthyl)) = O=C(CCc1cccc2ccccc12)*; NMeW = CN[C@@H](Cc1c[nH]c2ccccc12)C(=O)O; 1Nal = N[C@@H](Cc1cccc2ccccc12)C(=O)O; 2Nal = N[C@@H](Cc1ccc2ccccc2c1)C(=O)O; mXylylene = c1cc(C[*:1])cc(C[*:2])c1; Cha = N[C@@H](CC1CCCCC1)C(=O)O; NMeL = CN[C@@H](CC(C)C)C(=O)O; αMeL = CC(C)C[C@](C)(N)C(=O)O; NMeC = CN[C@@H](CS)C(=O)O; Aib = CC(C)(N)C(=O)O

Each molecule was assayed against T1, GIPR (CHO-K1-hGIPR cells) (Homo sapiens, UniProt P48546) (assay: FACS binding assay). Details: competition with 20 nM GIP-057, 4° C. for 1 hour, read-out: pIC50 Category (converted).
T1 construct: host or cells: CHO-K1
T1 sequence (P48546 22-466): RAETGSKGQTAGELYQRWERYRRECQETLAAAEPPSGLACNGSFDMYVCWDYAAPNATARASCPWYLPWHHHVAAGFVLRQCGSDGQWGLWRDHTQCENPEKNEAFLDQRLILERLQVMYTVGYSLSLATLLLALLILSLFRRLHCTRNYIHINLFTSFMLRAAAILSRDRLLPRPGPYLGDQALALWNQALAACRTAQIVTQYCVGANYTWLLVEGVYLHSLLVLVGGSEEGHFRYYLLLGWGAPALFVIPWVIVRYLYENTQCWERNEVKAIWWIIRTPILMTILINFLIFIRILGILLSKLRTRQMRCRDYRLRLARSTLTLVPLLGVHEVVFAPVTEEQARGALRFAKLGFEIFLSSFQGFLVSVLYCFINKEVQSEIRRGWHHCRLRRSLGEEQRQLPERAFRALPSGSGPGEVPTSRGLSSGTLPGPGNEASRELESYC
How it was run: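 Median fluorescence in the APC channel, measured on washed CHO-K1 cells overexpressing human GIPR, was fitted by four-parameter logistic regression against peptide concentration to yield EC50 or IC50 values. Secondary labelling used APC-streptavidin (1 μg/mL, 30 min, ice).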

| IC50 | SMILES |
| --- | --- |
| > 1000 nM | CC[C@H](C)[C@@H]1NC(=O)[C@H](CC(C)C)NC(=O)C(C)(C)NC(=O)[C@@H](NC(=O)[C@H](CC(C)C)N(C)C(=O)[C@H](CCC(=O)O)NC(=O)[C@@H]2CCCN2C(=O)[C@H](Cc2c[nH]c3ccccc23)NC(=O)[C@H](Cc2c[nH]c3ccccc23)NC(=O)[C@H](CC(=O)O)NC(C)=O)CSCc2cccc(c2)CSC[C@@H](C(=O)NCCCOCCOCCOCCCNC(=O)CCC(=O)N[C@@H](CCCCNC(=O)CN2CCN(CC(=O)O)CCN(CC(=O)O)CCN(CC(=O)O)CC2)C(N)=O)NC1=O [GIP-290, Ac-Asp-Trp-Trp-Pro-Glu-Nml-[Cys(3MeBn)-Aib-Leu-Ile-Cys]-Ttds-Lys(DOTA)-NH2] (Ac-DWWPE[NMeL]C[Aib]LIC-X5; linker 7-11 via mXylylene) |
| > 1000 nM | CC[C@H](C)[C@@H]1NC(=O)[C@H](CC(C)C)NC(=O)C(C)(C)NC(=O)[C@@H](N(C)C(=O)[C@H](CC(C)C)NC(=O)[C@H](CCC(=O)O)NC(=O)[C@@H]2CCCN2C(=O)[C@H](Cc2c[nH]c3ccccc23)NC(=O)[C@H](Cc2c[nH]c3ccccc23)NC(=O)[C@H](CC(=O)O)NC(C)=O)CSCc2cccc(c2)CSC[C@@H](C(=O)NCCCOCCOCCOCCCNC(=O)CCC(=O)N[C@@H](CCCCNC(=O)CN2CCN(CC(=O)O)CCN(CC(=O)O)CCN(CC(=O)O)CC2)C(N)=O)NC1=O [GIP-291, Ac-Asp-Trp-Trp-Pro-Glu-Leu-[Nmc(3MeBn)-Aib-Leu-Ile-Cys]-Ttds-Lys(DOTA)-NH2] (Ac-DWWPEL[NMeC][Aib]LIC-X5; linker 7-11 via mXylylene) |
| > 1000 nM | CC[C@H](C)[C@@H]1NC(=O)[C@H](CC(C)C)NC(=O)C(C)(C)NC(=O)[C@@H](NC(=O)[C@H](CC(C)C)NC(=O)[C@H](CCC(=O)O)NC(=O)[C@@H]2CCCN2C(=O)[C@H](Cc2c[nH]c3ccccc23)NC(=O)[C@H](Cc2c[nH]c3ccccc23)NC(=O)[C@H](CC(=O)O)NC(C)=O)CSCc2cccc(c2)CSC[C@@H](C(=O)NCCCOCCOCCOCCCNC(=O)CCC(=O)N[C@@H](CCCCNC(=O)CN2CCN(CC(=O)O)CCN(CC(=O)O)CCN(CC(=O)O)CC2)C(N)=O)N(C)C1=O [GIP-292, Ac-Asp-Trp-Trp-Pro-Glu-Leu-[Cys(3MeBn)-Aib-Leu-Ile-Nmc]-Ttds-Lys(DOTA)-NH2] (Ac-DWWPELC[Aib]LI[NMeC]-X5; linker 7-11 via mXylylene) |
| > 1000 nM | CC[C@H](C)[C@@H]1NC(=O)[C@H](CC(C)C)NC(=O)C(C)(C)NC(=O)[C@@H](NC(=O)[C@H](CC(C)C)NC(=O)[C@H](CCC(=O)O)NC(=O)[C@@H]2CCCN2C(=O)[C@H](Cc2c[nH]c3ccccc23)NC(=O)[C@H](Cc2cccc3ccccc23)NC(=O)[C@H](CC(=O)O)NC(C)=O)CSCc2cccc(c2)CSC[C@@H](C(=O)NCCCOCCOCCOCCCNC(=O)CCC(=O)N[C@@H](CCCCNC(=O)CN2CCN(CC(=O)O)CCN(CC(=O)O)CCN(CC(=O)O)CC2)C(N)=O)NC1=O [GIP-293, Ac-Asp-1Ni-Trp-Pro-Glu-Leu-[Cys(3MeBn)-Aib-Leu-Ile-Cys]-Ttds-Lys(DOTA)-NH2] (Ac-D[1Nal]WPELC[Aib]LIC-X5; linker 7-11 via mXylylene) |
| > 1000 nM | CC[C@H](C)[C@@H]1NC(=O)[C@H](CC(C)C)NC(=O)C(C)(C)NC(=O)[C@@H](NC(=O)[C@H](CC(C)C)NC(=O)[C@H](CCC(=O)O)NC(=O)[C@@H]2CCCN2C(=O)[C@H](Cc2ccc3ccccc3c2)NC(=O)[C@H](Cc2c[nH]c3ccccc23)NC(=O)[C@H](CC(=O)O)NC(C)=O)CSCc2cccc(c2)CSC[C@@H](C(=O)NCCCOCCOCCOCCCNC(=O)CCC(=O)NC(CCCCNC(=O)CN2CCN(CC(=O)O)CCN(CC(=O)O)CCN(CC(=O)O)CC2)C(N)=O)NC1=O (stereo partly drawn) [GIP-294, Ac-Asp-Trp-2Ni-Pro-Glu-Leu-[Cys(3MeBn)-Aib-Leu-Ile-Cys]-Ttds-Lys(DOTA)-NH2] (Ac-DW[2Nal]PELC[Aib]LIC-X25; linker 7-11 via mXylylene) |
| > 1000 nM | CC[C@H](C)[C@@H]1NC(=O)[C@H](CC(C)C)NC(=O)C(C)(C)NC(=O)[C@@H](NC(=O)[C@H](CC2CCCCC2)NC(=O)[C@H](CCC(=O)O)NC(=O)[C@@H]2CCCN2C(=O)[C@H](Cc2c[nH]c3ccccc23)NC(=O)[C@H](Cc2c[nH]c3ccccc23)NC(=O)[C@H](CC(=O)O)NC(C)=O)CSCc2cccc(c2)CSC[C@@H](C(=O)NCCCOCCOCCOCCCNC(=O)CCC(=O)N[C@@H](CCCCNC(=O)CN2CCN(CC(=O)O)CCN(CC(=O)O)CCN(CC(=O)O)CC2)C(N)=O)NC1=O [GIP-295, Ac-Asp-Trp-Trp-Pro-Glu-Cha-[Cys(3MeBn)-Aib-Leu-Ile-Cys]-Ttds-Lys(DOTA)-NH2] (Ac-DWWPE[Cha]C[Aib]LIC-X5; linker 7-11 via mXylylene) |
| > 1000 nM | CC[C@H](C)[C@@H]1NC(=O)[C@H](CC(C)C)NC(=O)C(C)(C)NC(=O)[C@@H](NC(=O)[C@](C)(CC(C)C)NC(=O)[C@H](CCC(=O)O)NC(=O)[C@@H]2CCCN2C(=O)[C@H](Cc2c[nH]c3ccccc23)NC(=O)[C@H](Cc2c[nH]c3ccccc23)NC(=O)[C@H](CC(=O)O)NC(C)=O)CSCc2cccc(c2)CSC[C@@H](C(=O)NCCCOCCOCCOCCCNC(=O)CCC(=O)N[C@@H](CCCCNC(=O)CN2CCN(CC(=O)O)CCN(CC(=O)O)CCN(CC(=O)O)CC2)C(N)=O)NC1=O [GIP-296, Ac-Asp-Trp-Trp-Pro-Glu-Aml-[Cys(3MeBn)-Aib-Leu-Ile-Cys]-Ttds-Lys(DOTA)-NH2] (Ac-DWWPE[αMeL]C[Aib]LIC-X5; linker 7-11 via mXylylene) |
| > 1000 nM | CC[C@H](C)[C@@H]1NC(=O)[C@H](CC(C)C)NC(=O)C(C)(C)NC(=O)[C@@H](NC(=O)[C@H](CC(C)C)NC(=O)[C@H](CCC(=O)O)NC(=O)[C@@H]2CCCN2C(=O)[C@H](Cc2c[nH]c3ccccc23)NC(=O)[C@H](Cc2c[nH]c3ccccc23)N(C)C(=O)[C@H](CC(=O)O)NC(C)=O)CSCc2cccc(c2)CSC[C@@H](C(=O)NCCCOCCOCCOCCCNC(=O)CCC(=O)N[C@@H](CCCCNC(=O)CN2CCN(CC(=O)O)CCN(CC(=O)O)CCN(CC(=O)O)CC2)C(N)=O)NC1=O [GIP-297, Ac-Asp-Nmw-Trp-Pro-Glu-Leu-[Cys(3MeBn)-Aib-Leu-Ile-Cys]-Ttds-Lys(DO TA)-NH2] (Ac-D[NMeW]WPELC[Aib]LIC-X5; linker 7-11 via mXylylene) |
| > 1000 nM | CC[C@H](C)[C@@H]1NC(=O)[C@H](CC(C)C)NC(=O)C(C)(C)NC(=O)[C@@H](NC(=O)[C@H](CC(C)C)NC(=O)[C@H](CCC(=O)O)NC(=O)[C@@H]2CCCN2C(=O)[C@H](Cc2cccc3ccccc23)NC(C)=O)CSCc2cccc(c2)CSC[C@@H](C(=O)NCCCOCCOCCOCCCNC(=O)CCC(=O)N[C@@H](CCCCNC(=O)CN2CCN(CC(=O)O)CCN(CC(=O)O)CCN(CC(=O)O)CC2)C(N)=O)NC1=O [GIP-298, Ac-1Ni-Pro-Glu-Leu-[Cys(3MeBn)-Aib-Leu-Ile-Cys]-Ttds-Lys(DOTA)-NH2] (Ac-[1Nal]PELC[Aib]LIC-X5; linker 5-9 via mXylylene) |
| > 1000 nM | CC[C@H](C)[C@@H]1NC(=O)[C@H](CC(C)C)NC(=O)C(C)(C)NC(=O)[C@@H](NC(=O)[C@H](CC(C)C)NC(=O)[C@H](CCC(=O)O)NC(=O)[C@@H]2CCCN2C(=O)CCc2cccc3ccccc23)CSCc2cccc(c2)CSC[C@@H](C(=O)NCCCOCCOCCOCCCNC(=O)CCC(=O)N[C@@H](CCCCNC(=O)CN2CCN(CC(=O)O)CCN(CC(=O)O)CCN(CC(=O)O)CC2)C(N)=O)NC1=O [GIP-299, Nph1p-Pro-Glu-Leu-[Cys(3MeBn)-Aib-Leu-Ile-Cys]-Ttds-Lys(DOTA)-NH2] ({Propanoyl(3-(1-naphthyl))}-PELC[Aib]LIC-X5; linker 4-8 via mXylylene) |
| > 1000 nM | CC(=O)N[C@@H](CC(=O)O)C(=O)N[C@@H](Cc1c[nH]c2ccccc12)C(=O)N[C@@H](Cc1cccc2ccccc12)C(=O)N1CCC[C@H]1C(=O)N[C@@H](CCC(=O)O)C(=O)N[C@H](CC(C)C)C(=O)N[C@H]1CSCc2cccc(c2)CSC[C@@H](C(=O)NCCCOCCOCCOCCCNC(=O)CCC(=O)N[C@@H](CCCCNC(=O)CN2CCN(CC(=O)O)CCN(CC(=O)O)CCN(CC(=O)O)CC2)C(N)=O)NC(=O)[C@@H](C(C)C)NC(=O)[C@H](CC(C)C)NC(=O)[C@H](C)NC1=O [GIP-300, Ac-Asp-Trp-1Ni-Pro-Glu-leu-[Cys(3MeBn)-Ala-Leu-val-Cys]-Ttds-Lys(DOTA)-NH2] (Ac-DW[1Nal]PE[dL]CAL[dV]C-X5; linker 7-11 via mXylylene) |
| > 1000 nM | CC[C@H](C)[C@@H]1NC(=O)[C@H](CC(C)C)NC(=O)C(C)(C)NC(=O)[C@@H](NC(=O)[C@H](CC(C)C)NC(=O)[C@H](CCC(=O)O)NC(=O)[C@@H]2CCCN2C(=O)[C@H](Cc2cccc3ccccc23)NC(=O)[C@H](Cc2c[nH]c3ccccc23)NC(C)=O)CSCc2cccc(c2)CSC[C@@H](C(=O)NCCCOCCOCCOCCCNC(=O)CCC(=O)N[C@@H](CCCCNC(=O)CN2CCN(CC(=O)O)CCN(CC(=O)O)CCN(CC(=O)O)CC2)C(N)=O)NC1=O [GIP-301, Ac-Trp-1Ni-Pro-Glu-Leu-[Cys(3MeBn)-Aib-Leu-Ile-Cys]-Ttds-Lys(DOTA)-NH2] (Ac-W[1Nal]PELC[Aib]LIC-X5; linker 6-10 via mXylylene) |
